Measured values reported in the supplement of paper PMC11451515.

Tested on: SEM cells
Assay: cell viability relative to DMSO control; higher = less cytotoxic
Conditions: 48 h
Method in brief: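 NOMO1 or SEM (500 cells/well) or P12-Ichikawa (1000 cells/well) leukemia cells were adapted for at least four passages in each medium. They were seeded in 1536-well plates (5 μl) and pin-dosed with library compounds in DMSO over an 11-point threefold series, 47 μM to 0.79 nM. CellTiter-Glo One luminescence was read after 48 h at 37°C. Viability is the per-plate percentage relative to DMSO wells, with cell-free wells as background.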

[1] = HPLM + 10% dialyzed FBS, 0.000781 µM
[2] = HPLM + 10% dialyzed FBS, 0.00234 µM
[3] = HPLM + 10% dialyzed FBS, 0.00702 µM
[4] = HPLM + 10% dialyzed FBS, 0.0211 µM
[5] = HPLM + 10% dialyzed FBS, 0.0632 µM
[6] = HPLM + 10% dialyzed FBS, 0.19 µM
[7] = HPLM + 10% dialyzed FBS, 0.569 µM
[8] = HPLM + 10% dialyzed FBS, 1.71 µM
[9] = HPLM + 10% dialyzed FBS, 5.12 µM
[10] = HPLM + 10% dialyzed FBS, 15.4 µM
[11] = HPLM + 10% dialyzed FBS, 46.1 µM
[12] = RPMI 5 mM glucose + 10% FBS, 0.000781 µM
[13] = RPMI 5 mM glucose + 10% FBS, 0.00234 µM
[14] = RPMI 5 mM glucose + 10% FBS, 0.00702 µM
[15] = RPMI 5 mM glucose + 10% FBS, 0.0211 µM
[16] = RPMI 5 mM glucose + 10% FBS, 0.0632 µM
[17] = RPMI 5 mM glucose + 10% FBS, 0.19 µM
[18] = RPMI 5 mM glucose + 10% FBS, 0.569 µM
[19] = RPMI 5 mM glucose + 10% FBS, 1.71 µM
[20] = RPMI 5 mM glucose + 10% FBS, 5.12 µM
[21] = RPMI 5 mM glucose + 10% FBS, 15.4 µM
[22] = RPMI 5 mM glucose + 10% FBS, 46.1 µM
[23] = RPMI 5 mM glucose + 10% dialyzed FBS, 0.000781 µM
[24] = RPMI 5 mM glucose + 10% dialyzed FBS, 0.00234 µM
[25] = RPMI 5 mM glucose + 10% dialyzed FBS, 0.00702 µM
[26] = RPMI 5 mM glucose + 10% dialyzed FBS, 0.0211 µM
[27] = RPMI 5 mM glucose + 10% dialyzed FBS, 0.0632 µM
[28] = RPMI 5 mM glucose + 10% dialyzed FBS, 0.19 µM
[29] = RPMI 5 mM glucose + 10% dialyzed FBS, 0.569 µM
[30] = RPMI 5 mM glucose + 10% dialyzed FBS, 1.71 µM
[31] = RPMI 5 mM glucose + 10% dialyzed FBS, 5.12 µM
[32] = RPMI 5 mM glucose + 10% dialyzed FBS, 15.4 µM
[33] = RPMI 5 mM glucose + 10% dialyzed FBS, 46.1 µM

Row | Structure (SMILES) | cell viability [1] [%] | cell viability [2] [%] | cell viability [3] [%] | cell viability [4] [%] | cell viability [5] [%] | cell viability [6] [%] | cell viability [7] [%] | cell viability [8] [%] | cell viability [9] [%] | cell viability [10] [%] | cell viability [11] [%] | cell viability [12] [%] | cell viability [13] [%] | cell viability [14] [%] | cell viability [15] [%] | cell viability [16] [%] | cell viability [17] [%] | cell viability [18] [%] | cell viability [19] [%] | cell viability [20] [%] | cell viability [21] [%] | cell viability [22] [%] | cell viability [23] [%] | cell viability [24] [%] | cell viability [25] [%] | cell viability [26] [%] | cell viability [27] [%] | cell viability [28] [%] | cell viability [29] [%] | cell viability [30] [%] | cell viability [31] [%] | cell viability [32] [%] | cell viability [33] [%]
1 | COc1ccc2c(c1)c(CC(=O)OCC(=O)O)c(C)n2C(=O)c1ccc(Cl)cc1 | 109 | 114 | 111 | 110 | 112 | 110 | 119 | 102 | 113 | 109 | 106 | 121 | 126 | 121 | 120 | 113 | 111 | 109 | 99.8 | 113 | 98.4 | 102 | 119 | 131 | 123 | 123 | 116 | 116 | 128 | 110 | 112 | 113 | 100
2 | C[C@H]1[C@@H](C(=O)C[C@H]2O[C@@H]3O[C@]4(C)CC[C@H]5[C@H](C)CC[C@@H]([C@H]2C)[C@@]35OO4)O[C@@H]2O[C@]3(C)CC[C@H]4[C@H](C)CC[C@@H]1[C@@]24OO3 | 92.6 | 106 | 95.1 | 83.9 | 102 | 84.1 | 84.6 | 91.5 | 89 | 75.4 | 6.82 | 87.2 | 112 | 116 | 109 | 113 | 107 | 105 | 96.8 | 72.1 | 53.1 | 5.74 | 96.3 | 114 | 115 | 99.7 | 113 | 109 | 116 | 96.9 | 92.9 | 75 | 7.69
3 | CC[C@H](C)C(=O)O[C@H]1C[C@H](O)\C=C2\C=C/[C@H](C)[C@H](CC[C@@H](O)C[C@@H](O)CC(O)=O)[C@@H]12 | 118 | 114 | 116 | 111 | 125 | 129 | 121 | 126 | 103 | 106 | 92.9 | 98.7 | 110 | 121 | 124 | 113 | 126 | 107 | 118 | 95.8 | 108 | 102 | 123 | 109 | 121 | 125 | 129 | 109 | 121 | 110 | 119 | 120 | 86.2
4 | CCC\C1=C\C(=O)NC(=S)N1 | 71.1 | 74.2 | 98.3 | 30.6 | 119 | 91.1 | 7.27 | 27.9 | 79.2 | 51.5 | 75.9 | 63.3 | 91.9 | 102 | 28 | 121 | 124 | 6.88 | 22.9 | 93.1 | 52.2 | 65 | 69.2 | 74.8 | 91.7 | 54.4 | 89.8 | 125 | 6.6 | 20.3 | 92.4 | 43.1 | 50.8
5 | CO/C1=C/C(C)=C\[C@@H](C)[C@@H](O)[C@@H](C)C/C(C)=C\C=C/[C@H](OC)[C@@H]([C@@H](C)[C@@H](O)[C@H](C)[C@@]2(O)C[C@@H](O)[C@H](C)[C@@H](C(C)C)O2)OC1=O | 91 | 74.8 | 91 | 48.6 | 28.7 | 27 | 27 | 25.2 | 32 | 29 | 29.7 | 80.9 | 75 | 88.1 | 46.8 | 29.2 | 26.2 | 24.6 | 29.9 | 31.8 | 32.8 | 31.8 | 81.3 | 79.9 | 87.8 | 38.1 | 27.3 | 27.8 | 29.6 | 30.1 | 26.2 | 29.7 | 30.3
6 | Cc1ccc([S+](=O)([O-])Nc2nc3ccccc3nc2Nc2ccc3nsnc3c2)cc1 | 81.7 | 90.3 | 99.9 | 88.2 | 92.6 | 93.5 | 87.8 | 90.5 | 78.6 | 73.5 | 59.1 | 102 | 100 | 102 | 112 | 107 | 101 | 97.8 | 105 | 78.7 | 81.3 | 54.9 | 95 | 87.9 | 84.8 | 96 | 88.2 | 84.4 | 89.7 | 96.4 | 83.2 | 61.8 | 65.8
7 | COc1cc2c(Nc3ccc(Br)cc3F)ncnc2cc1OCC1CCN(C)CC1 | 45.3 | 81.6 | 94.3 | 69.3 | 71.4 | 76.8 | 72.2 | 65 | 79.4 | 31 | 66.2 | 67.3 | 124 | 111 | 112 | 118 | 110 | 84.2 | 88.7 | 98.1 | 58.9 | 74.1 | 40 | 83.4 | 91 | 89.2 | 63.7 | 80.7 | 81.7 | 63.2 | 79.1 | 42.5 | 63.5
